Reference: ChEMBL document CHEMBL1124092 (J Med Chem, 1988)
Activity calls are given as the source filed them. The rule behind the calls is not given here.

What was measured:
[1] = biological target: T1, 5-hydroxytryptamine receptor 1B (Rattus norvegicus, UniProt P28564); test: Evaluated for binding affinity towards 5-hydroxytryptamine 1B receptor
[2] = biological target: T2, Serotonin 2 (5-HT2) receptor (Rattus norvegicus, UniProt P30994+P08909+P14842); test: Binding affinity towards 5-hydroxytryptamine 2 receptor using [3H]- ketanserin as radioligand; assay type: protein assay
Rattus norvegicus [3] = species on record: Rattus norvegicus; test: The dose at which the animals would show 50% responses on compound-appropriate lever; assay type: functional
[4] = biological target: T3, 5-hydroxytryptamine receptor 1A (Rattus norvegicus, UniProt P19327); test: Binding affinity towards 5-hydroxytryptamine 1A receptor
T3 sequence (P19327 whole entry): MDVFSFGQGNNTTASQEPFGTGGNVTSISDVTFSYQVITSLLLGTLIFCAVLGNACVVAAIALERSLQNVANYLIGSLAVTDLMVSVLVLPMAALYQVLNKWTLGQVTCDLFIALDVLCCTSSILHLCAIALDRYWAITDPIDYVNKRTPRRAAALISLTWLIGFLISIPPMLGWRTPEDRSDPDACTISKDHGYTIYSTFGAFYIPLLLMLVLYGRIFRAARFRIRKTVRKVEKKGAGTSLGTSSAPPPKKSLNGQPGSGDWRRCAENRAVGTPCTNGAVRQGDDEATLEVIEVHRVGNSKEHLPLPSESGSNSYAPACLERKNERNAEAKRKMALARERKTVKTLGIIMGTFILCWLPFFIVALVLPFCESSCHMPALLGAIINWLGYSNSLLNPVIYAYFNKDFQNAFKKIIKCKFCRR

[5] = biological target: T2, Serotonin 2 (5-HT2) receptor; test: Binding affinity towards 5-hydroxytryptamine 2 receptor using [3H]- 1-(4-bromo-2,5-dimethoxy-phenyl)-2-aminopropane (D) as radioligand; assay type: protein assay
Rattus norvegicus [6] = test: 8-OH-DPAT appropriate response rate in % at 0.2 mg/kg where stimulus generalization occurred(7/7 no of animals); assay type: functional
Rattus norvegicus [7] = test: 8-OH-DPAT appropriate response of animals/min rate in %0.2 mg/Kg where stimulus generalization occurred(7/7 no of animals); assay type: functional
Rattus norvegicus [8] = test: The dose at which the animals would show 50% response on 8-OH-DPAT appropriate lever at a dose 0.2 mg/kg (7/7 no of animals); assay type: functional
Rattus norvegicus [9] = test: DOM appropriate response rate in % at 6.0 mg/Kg where stimulus generalization occurred(3/5 no of animals); assay type: functional
Rattus norvegicus [10] = species on record: Rattus norvegicus; test: 8-OH-DPAT appropriate response rate in % at […] where stimulus generalization occurred(2/5 no of animals); No responding; assay type: functional, organism-based; set-up: dose 1.2 mg/kg
Rattus norvegicus [11] = test: DOM appropriate response of animals/min rate in % at 6.0 mg/Kg where stimulus generalization occurred(3/5 no of animals); assay type: functional
Rattus norvegicus [12] = test: 8-OH-DPAT appropriate response of animals/min rate in % 0.8 mg/kg where stimulus generalization occurred(3/4 no of animals); assay type: functional
Rattus norvegicus [13] = test: DOM appropriate response of animals/min rate in % at 5.0 mg/Kg where stimulus generalization occurred(4/5 no of animals); assay type: functional
Rattus norvegicus [14] = test: 8-OH-DPAT appropriate response of animals/min rate in % 0.9 mg/kg where stimulus generalization occurred(4/7 no of animals); assay type: functional
Rattus norvegicus [15] = species on record: Rattus norvegicus; test: DOM appropriate response rate in % at […] where stimulus generalization occurred(5/5 no of animals); assay type: functional
Rattus norvegicus [16] = test: 8-OH-DPAT appropriate response of animals/min rate in % 1.0 mg/kg where stimulus generalization occurred(4/5 no of animals); assay type: functional
Rattus norvegicus [17] = test: The dose at which the animals would show 50% responses on DOM appropriate lever at a dose 6.0 mg/kg; assay type: functional
Rattus norvegicus [18] = test: DOM appropriate response rate in % at 2.0 mg/Kg where stimulus generalization occurred(4/5 no of animals); assay type: functional
Rattus norvegicus [19] = test: 8-OH-DPAT appropriate response rate in % at 1.1 mg/kg where stimulus generalization occurred(4/5 no of animals); assay type: functional
Rattus norvegicus [20] = test: DOM appropriate response rate in % at 5.0 mg/Kg where stimulus generalization occurred(4/5 no of animals); assay type: functional
Rattus norvegicus [21] = test: DOM appropriate response of animals/min rate in % at 2.0 mg/kg where stimulus generalization occurred(4/5 no of animals); assay type: functional
Rattus norvegicus [22] = species on record: Rattus norvegicus; test: DOM appropriate response of animals/min rate in % at […] where stimulus generalization occurred(5/5 no of animals); assay type: functional
Rattus norvegicus [23] = test: 8-OH-DPAT appropriate response of animals/min rate in % 1.1 mg/kg where stimulus generalization occurred(4/5 no of animals); assay type: functional
Rattus norvegicus [24] = test: 8-OH-DPAT appropriate response rate in % at 0.4 mg/kg where stimulus generalization occurred(4/5 no of animals); assay type: functional
Rattus norvegicus [25] = test: DOM appropriate response of animals/min rate in % at 0.6 mg/Kg where stimulus generalization occurred(5/5 no of animals); assay type: functional
Rattus norvegicus [26] = test: 8-OH-DPAT appropriate response rate in % at 0.9 mg/kg where stimulus generalization occurred (4/7 no of animals); assay type: functional
Rattus norvegicus [27] = test: DOM appropriate response rate in % at 0.6 mg/Kg where stimulus generalization occurred(5/5 no of animals); assay type: functional
Rattus norvegicus [28] = test: 8-OH-DPAT appropriate response rate in % at 1.0 mg/kg where stimulus generalization occurred(4/5 no of animals); assay type: functional
Rattus norvegicus [29] = test: 8-OH-DPAT appropriate response of animals/min rate in % 0.4 mg/kg where stimulus generalization occurred(4/5 no of animals); assay type: functional
Rattus norvegicus [30] = test: 8-OH-DPAT appropriate response rate in % at 0.8 mg/kg where stimulus generalization occurred(3/4 no of animals); assay type: functional
Rattus norvegicus [31] = species on record: Rattus norvegicus; test: The dose at which the animals show 50% responses on drug-appropriate lever; assay type: functional
Rattus norvegicus [32] = test: DOM appropriate response of animals/min at 1.0 mg/kg where stimulus generalization occurred (5/5 no of animals); assay type: functional
Rattus norvegicus [33] = test: DOM appropriate response rate in % at 1.0 mg/kg where stimulus generalization occurred (5/5 no of animals); assay type: functional
[34] = biological target: T3, 5-hydroxytryptamine receptor 1A; test: Binding affinity against 5-hydroxytryptamine 1A receptor in rat hippocampal tissue; assay type: tissue-based, Hippocampus
[35] = biological target: T1, 5-hydroxytryptamine receptor 1B; test: Binding affinity against 5-HT1B serotonin receptor in rat striatum; assay type: tissue-based

T1 sequence (P28564 whole entry): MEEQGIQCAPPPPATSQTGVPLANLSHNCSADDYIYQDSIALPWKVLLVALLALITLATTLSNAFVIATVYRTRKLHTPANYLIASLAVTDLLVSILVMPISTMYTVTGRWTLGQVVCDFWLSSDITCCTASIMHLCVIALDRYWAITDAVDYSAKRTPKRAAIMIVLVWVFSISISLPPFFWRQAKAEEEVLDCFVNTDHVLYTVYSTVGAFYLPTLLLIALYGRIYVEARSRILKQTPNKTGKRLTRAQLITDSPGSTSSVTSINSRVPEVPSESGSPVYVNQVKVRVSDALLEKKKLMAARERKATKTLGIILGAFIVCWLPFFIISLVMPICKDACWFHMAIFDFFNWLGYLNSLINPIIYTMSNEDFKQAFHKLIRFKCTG

Structure (SMILES): CCCN(CCC)C1CCc2cccc(OC)c2C1 (configuration not stated)
- Ki [1]: > 1000 nM
- Ki [2]: 3050 nM
- ED50 (Rattus norvegicus [3]): 0.22 mg/kg
- Ki [4]: 1.3 nM
- Ki [5]: 280 nM

Structure (SMILES): CCCN(CCC)C1CCc2cccc(O)c2C1 (configuration not stated) [8-OH-DPAT]
- Ki [2]: 5350 nM
- Responding (Rattus norvegicus [6]): 88%
- Response (Rattus norvegicus [7]): 16.8
- Ki [5]: 635 nM
- ED50 (Rattus norvegicus [8]): 0.08 mg/kg

Structure (SMILES): CCCN(CCC)CCc1c[nH]c2ccc(OC)cc12
- Responding (Rattus norvegicus [9]): 91%
- Responding (Rattus norvegicus [10]): inactive
- Response (Rattus norvegicus [11]): 5.2
- Response (Rattus norvegicus [12]): 9.2
- Response (Rattus norvegicus [13]): 10.3
- Response (Rattus norvegicus [14]): 13.6
- Responding (Rattus norvegicus [15]): 49%
- Response (Rattus norvegicus [16]): 5.6
- ED50 (Rattus norvegicus [17]): 1.68 mg/kg
- Responding (Rattus norvegicus [18]): 51%
- Ki [1]: 1800 nM
- Ki [2]: 655 nM
- Responding (Rattus norvegicus [19]): 81%
- Ki [4]: 4 nM
- Responding (Rattus norvegicus [20]): 74%
- Response (Rattus norvegicus [21]): 12
- Response (Rattus norvegicus [22]): 12.3
- Ki [5]: 7.1 nM
- Response (Rattus norvegicus [23]): 4.1
- Responding (Rattus norvegicus [24]): 15%
- Response (Rattus norvegicus [25]): 10.2
- Responding (Rattus norvegicus [26]): 56%
- Responding (Rattus norvegicus [27]): 21%
- Responding (Rattus norvegicus [28]): 67%
- Response (Rattus norvegicus [29]): 13.6
- Responding (Rattus norvegicus [30]): 56%

Structure (SMILES): COc1ccc2[nH]cc(CCN(C)C)c2c1 [MEBUFOTENIN]
- ED50 (Rattus norvegicus [31]): 1.43 mg/kg
- Ki [1]: 350 nM
- Ki [4]: 7.8 nM

Structure (SMILES): CCCN(CCC)CCc1c[nH]c2ccc(O)cc12
- Ki [1]: 4300 nM
- Ki [2]: 450 nM
- Ki [4]: 7.1 nM
- Ki [5]: 1 nM

Structure (SMILES): COc1cc(CC(C)N)c(OC)cc1C (configuration not stated) [DOM]
- Response (Rattus norvegicus [32]): 12.8
- Responding (Rattus norvegicus [33]): 92%
- Ki [34]: 5.12 µM
- Ki [35]: 2070 nM
